Reference: ChEMBL document CHEMBL5528010, “The discovery of aryl-2-nitroethyl triamino pyrimidines as anti-Trypanosoma brucei agents” (Eur J Med Chem, 2024)
One block for each molecule: values may come before it. Active and inactive are the calls of the source. No cut-off for these calls is given here.

Experiments:
CYP2C19 = assay: Selectivity index, ratio of IC50 for CYP2C19 (unknown origin) to EC50 for blood stream form Trypanosoma brucei; assay type: toxicity; conditions: read-out: Ratio IC50/EC50
CYP1A2 = assay: Selectivity index, ratio of IC50 for CYP1A2 (unknown origin) to EC50 for blood stream form Trypanosoma brucei; assay type: toxicity; conditions: read-out: Ratio IC50/EC50
[1] = Half life in BALB/c mouse at 20 mg/kg, po measured upto 24 hrs by LC-MS/MS analysis; assay type: ADME, organism-based; conditions: in vivo
Trypanosoma brucei [2] = assay: Antiparasitic activity against blood stream form Trypanosoma brucei assessed as parasitic growth inhibition incubated for 72 hrs by resazurin dye based fluorescence analysis; assay type: functional, organism-based
Cytochrome P450 1A2 = molecular target: T1, Cytochrome P450 1A2 (Homo sapiens, UniProt P05177); assay: Inhibition of CYP1A2 (unknown origin) expressed in baculovirus infected insect cells using luciferin as substrate preincubated for 30 mins followed by NADPH addition and measured after 30 mins by luminescence based analysis; assay type: ADME, Insect cell
T1 sequence (P05177 whole entry): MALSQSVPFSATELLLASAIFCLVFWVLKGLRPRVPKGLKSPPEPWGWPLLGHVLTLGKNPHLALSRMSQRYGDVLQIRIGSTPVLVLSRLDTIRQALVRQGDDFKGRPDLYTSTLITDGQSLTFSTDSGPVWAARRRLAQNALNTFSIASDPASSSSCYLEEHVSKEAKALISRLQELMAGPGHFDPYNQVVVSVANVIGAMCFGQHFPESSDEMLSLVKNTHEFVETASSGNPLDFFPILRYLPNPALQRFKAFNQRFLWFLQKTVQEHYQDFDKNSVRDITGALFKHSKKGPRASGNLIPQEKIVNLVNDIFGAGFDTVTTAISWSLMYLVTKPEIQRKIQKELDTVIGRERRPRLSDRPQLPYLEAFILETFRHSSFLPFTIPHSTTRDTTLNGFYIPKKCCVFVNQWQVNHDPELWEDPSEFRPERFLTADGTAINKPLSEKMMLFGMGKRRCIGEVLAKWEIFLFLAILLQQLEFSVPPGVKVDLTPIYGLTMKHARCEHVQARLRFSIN

Cytochrome P450 2C19 = Cytochrome P450 2C19 (Homo sapiens, UniProt P33261); assay: Inhibition of CYP2C19 (unknown origin) expressed in baculovirus infected insect cells using luciferin as substrate preincubated for 30 mins followed by NADPH addition and measured after 30 mins by luminescence based analysis; assay type: ADME, Insect cell
CYP3A4 = assay: Selectivity index, ratio of IC50 for CYP3A4 (unknown origin) to EC50 for blood stream form Trypanosoma brucei; assay type: toxicity; conditions: read-out: Ratio IC50/EC50
Cytochrome P450 2C9 = Cytochrome P450 2C9 (Homo sapiens, UniProt P11712); assay: Inhibition of CYP2C9 (unknown origin) expressed in baculovirus infected insect cells using luciferin as substrate preincubated for 30 mins followed by NADPH addition and measured after 30 mins by luminescence based analysis; assay type: ADME, Insect cell
hERG = assay: Selectivity index, ratio of IC50 for human ERG to EC50 for blood stream form Trypanosoma brucei; assay type: toxicity; conditions: read-out: Ratio IC50/EC50
Leishmania infantum = assay: Antiparasitic activity against Leishmania infantum intracellular amastigotes MHOM/BR/1972/BH46 infected in human THP-1 cells assessed as inhibition of parasitic growth at 50 uM pre-infected for 24 hrs followed by compound addition and measured after 48 hrs relative to control; assay type: functional; conditions: MHOM/BR/1972/BH46, THP-1
[3] = Growth inhibition of human A549 cells measured after 48 hrs by celltiter-glo assay; assay type: toxicity, cell-based
Pteridine reductase 1 = molecular target: T2, Pteridine reductase 1 (Leishmania major, UniProt Q01782); assay: Inhibition of N-terminal his 6 tagged recombinant Leishmania major PTR1 expressed in Escherichia coli BL21 (DE3) cells preincubated for 10 mins followed by NADPH addition and measured after 10 to 50 mins by multilabel plate reader method
T2 sequence (Q01782 whole entry): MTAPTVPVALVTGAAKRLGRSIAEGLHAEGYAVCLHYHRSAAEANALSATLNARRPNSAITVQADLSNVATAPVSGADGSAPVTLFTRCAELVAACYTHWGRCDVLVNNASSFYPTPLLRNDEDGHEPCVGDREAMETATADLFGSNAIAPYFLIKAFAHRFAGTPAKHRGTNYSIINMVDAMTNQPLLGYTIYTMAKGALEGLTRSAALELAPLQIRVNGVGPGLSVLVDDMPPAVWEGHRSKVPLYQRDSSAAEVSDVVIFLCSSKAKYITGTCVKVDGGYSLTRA

[4] = molecular target: Voltage-gated inwardly rectifying potassium channel KCNH2 (Homo sapiens, UniProt Q12809); assay: Inhibition of human ERG incubated for 2 hrs by fluorescence polarization assay; assay type: toxicity
[5] = Cmax in BALB/c mouse at 20 mg/kg, po measured upto 24 hrs by LC-MS/MS analysis; assay type: ADME, organism-based; conditions: in vivo
CYP2D6 = assay: Selectivity index, ratio of IC50 for CYP2D6 (unknown origin) to EC50 for blood stream form Trypanosoma brucei; assay type: toxicity; conditions: read-out: Ratio IC50/EC50
Trypanosoma brucei [6] = assay: Anti-parasitic activity against Trypanosoma brucei infected in BALB/c mouse model assessed as reduction of parasitemia at 20 mg/kg administered daily; assay type: functional, organism-based
[7] = Selectivity index, ratio of GI50 for human A549 cells to EC50 for blood stream form Trypanosoma brucei; assay type: toxicity; conditions: read-out: Ratio GI50/EC50
CYP2C9 = assay: Selectivity index, ratio of IC50 for CYP2C9 (unknown origin) to EC50 for blood stream form Trypanosoma brucei; assay type: toxicity; conditions: read-out: Ratio IC50/EC50
[8] = Inhibition of N-terminal his 6 tagged recombinant Trypanosoma brucei PTR1 expressed in Escherichia coli BL21 (DE3) cells preincubated for 10 mins followed by NADPH addition and measured after 10 to 50 mins by multilabel plate reader method; assay type: cell-based
Cytochrome P450 3A4 = Cytochrome P450 3A4 (Homo sapiens, UniProt P08684); assay: Inhibition of CYP3A4 (unknown origin) expressed in baculovirus infected insect cells using luciferin as substrate preincubated for 30 mins followed by NADPH addition and measured after 30 mins by luminescence based analysis; assay type: ADME, Insect cell
THP-1 = assay: Cytotoxicity against human THP-1 cells assessed as reduction in cell viability measured after 72 hrs by MTT assay; assay type: functional
Cytochrome P450 2D6 = Cytochrome P450 2D6 (Homo sapiens, UniProt P10635); assay: Inhibition of CYP2D6 (unknown origin) expressed in baculovirus infected insect cells using luciferin as substrate preincubated for 30 mins followed by NADPH addition and measured after 30 mins by luminescence based analysis; assay type: ADME, Insect cell
[9] = AUC last in BALB/c mouse at 20 mg/kg, po measured upto 24 hrs by LC-MS/MS analysis; assay type: ADME, organism-based; conditions: in vivo
[10] = Mitochondrial toxicity in human A549 cells; assay type: cell-based
[11] = Tmax in BALB/c mouse at 20 mg/kg, po measured upto 24 hrs by LC-MS/MS analysis; assay type: ADME, organism-based; conditions: in vivo
[12] = Selectivity index, ratio of IC50 for human A549 cells to EC50 for blood stream form Trypanosoma brucei; assay type: toxicity; conditions: read-out: Ratio IC50/EC50
[13] = Selectivity index, ratio of CC50 for human THP-1 cells to EC50 for bloodstream form Trypanosoma brucei; assay type: toxicity; conditions: read-out: Ratio CC50/EC50
Trypanosoma brucei [14] = assay: Anti-parasitic activity against Trypanosoma brucei infected in BALB/c mouse model assessed as reduction of parasitemia at 5 mg/kg/day, ip relative to control; assay type: functional; parameters: scale not given: the % may be the effect or the level left

Chain of Cytochrome P450 2C19 (P33261 whole entry): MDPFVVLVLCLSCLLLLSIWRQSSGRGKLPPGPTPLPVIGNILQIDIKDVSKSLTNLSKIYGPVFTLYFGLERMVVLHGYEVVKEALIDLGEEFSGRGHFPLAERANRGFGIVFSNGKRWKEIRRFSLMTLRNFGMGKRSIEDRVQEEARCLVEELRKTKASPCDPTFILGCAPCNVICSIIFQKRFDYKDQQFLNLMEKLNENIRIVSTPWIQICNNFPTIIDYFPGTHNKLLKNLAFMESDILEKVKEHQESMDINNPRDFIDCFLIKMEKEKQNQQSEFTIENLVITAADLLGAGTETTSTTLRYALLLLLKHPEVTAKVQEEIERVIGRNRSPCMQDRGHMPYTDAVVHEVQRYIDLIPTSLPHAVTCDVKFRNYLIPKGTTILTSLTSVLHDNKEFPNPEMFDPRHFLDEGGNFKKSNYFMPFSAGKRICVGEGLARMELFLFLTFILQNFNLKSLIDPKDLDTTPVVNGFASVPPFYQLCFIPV
Chain of Cytochrome P450 2D6 (P10635 whole entry): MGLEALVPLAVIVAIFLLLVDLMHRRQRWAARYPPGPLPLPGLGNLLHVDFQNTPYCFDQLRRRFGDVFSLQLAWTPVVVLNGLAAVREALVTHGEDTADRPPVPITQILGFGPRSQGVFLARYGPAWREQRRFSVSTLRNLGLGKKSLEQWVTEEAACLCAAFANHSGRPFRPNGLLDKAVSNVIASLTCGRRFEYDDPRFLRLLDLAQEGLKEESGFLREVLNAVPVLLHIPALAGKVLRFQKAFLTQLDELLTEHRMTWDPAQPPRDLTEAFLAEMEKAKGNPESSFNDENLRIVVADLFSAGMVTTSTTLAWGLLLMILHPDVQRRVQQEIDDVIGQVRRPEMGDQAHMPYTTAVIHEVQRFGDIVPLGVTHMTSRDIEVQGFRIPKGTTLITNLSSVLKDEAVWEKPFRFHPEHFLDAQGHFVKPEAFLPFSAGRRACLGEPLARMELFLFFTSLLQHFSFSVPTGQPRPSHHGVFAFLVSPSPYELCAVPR
Chain of Cytochrome P450 3A4 (P08684 whole entry): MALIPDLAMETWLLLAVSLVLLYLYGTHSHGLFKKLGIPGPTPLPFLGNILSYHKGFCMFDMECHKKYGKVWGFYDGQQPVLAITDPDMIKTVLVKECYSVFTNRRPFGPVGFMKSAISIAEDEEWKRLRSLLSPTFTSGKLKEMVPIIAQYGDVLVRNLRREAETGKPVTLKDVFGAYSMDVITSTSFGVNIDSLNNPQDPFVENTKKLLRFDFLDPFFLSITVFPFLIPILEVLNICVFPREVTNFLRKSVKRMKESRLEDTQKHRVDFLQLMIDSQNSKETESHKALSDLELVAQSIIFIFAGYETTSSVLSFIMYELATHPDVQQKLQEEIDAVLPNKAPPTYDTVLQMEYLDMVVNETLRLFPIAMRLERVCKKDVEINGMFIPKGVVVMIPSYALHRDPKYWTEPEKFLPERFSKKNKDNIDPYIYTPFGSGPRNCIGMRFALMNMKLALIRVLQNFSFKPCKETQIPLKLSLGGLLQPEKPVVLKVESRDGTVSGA
Chain of Cytochrome P450 2C9 (P11712 whole entry): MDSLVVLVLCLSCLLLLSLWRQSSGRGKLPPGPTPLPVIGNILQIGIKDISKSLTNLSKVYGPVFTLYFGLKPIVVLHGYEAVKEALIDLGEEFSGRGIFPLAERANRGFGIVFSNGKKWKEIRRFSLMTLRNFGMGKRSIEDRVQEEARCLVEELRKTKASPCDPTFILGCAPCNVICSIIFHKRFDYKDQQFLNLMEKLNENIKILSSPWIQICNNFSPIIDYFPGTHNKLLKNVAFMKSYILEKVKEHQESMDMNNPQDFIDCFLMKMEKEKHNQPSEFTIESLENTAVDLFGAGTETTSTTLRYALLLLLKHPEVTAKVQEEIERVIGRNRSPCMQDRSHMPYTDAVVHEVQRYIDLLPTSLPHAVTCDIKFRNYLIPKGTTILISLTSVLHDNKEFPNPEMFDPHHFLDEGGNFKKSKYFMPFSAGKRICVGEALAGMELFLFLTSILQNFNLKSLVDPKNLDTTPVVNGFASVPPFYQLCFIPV
Chain of Voltage-gated inwardly rectifying potassium channel KCNH2 (Q12809 whole entry): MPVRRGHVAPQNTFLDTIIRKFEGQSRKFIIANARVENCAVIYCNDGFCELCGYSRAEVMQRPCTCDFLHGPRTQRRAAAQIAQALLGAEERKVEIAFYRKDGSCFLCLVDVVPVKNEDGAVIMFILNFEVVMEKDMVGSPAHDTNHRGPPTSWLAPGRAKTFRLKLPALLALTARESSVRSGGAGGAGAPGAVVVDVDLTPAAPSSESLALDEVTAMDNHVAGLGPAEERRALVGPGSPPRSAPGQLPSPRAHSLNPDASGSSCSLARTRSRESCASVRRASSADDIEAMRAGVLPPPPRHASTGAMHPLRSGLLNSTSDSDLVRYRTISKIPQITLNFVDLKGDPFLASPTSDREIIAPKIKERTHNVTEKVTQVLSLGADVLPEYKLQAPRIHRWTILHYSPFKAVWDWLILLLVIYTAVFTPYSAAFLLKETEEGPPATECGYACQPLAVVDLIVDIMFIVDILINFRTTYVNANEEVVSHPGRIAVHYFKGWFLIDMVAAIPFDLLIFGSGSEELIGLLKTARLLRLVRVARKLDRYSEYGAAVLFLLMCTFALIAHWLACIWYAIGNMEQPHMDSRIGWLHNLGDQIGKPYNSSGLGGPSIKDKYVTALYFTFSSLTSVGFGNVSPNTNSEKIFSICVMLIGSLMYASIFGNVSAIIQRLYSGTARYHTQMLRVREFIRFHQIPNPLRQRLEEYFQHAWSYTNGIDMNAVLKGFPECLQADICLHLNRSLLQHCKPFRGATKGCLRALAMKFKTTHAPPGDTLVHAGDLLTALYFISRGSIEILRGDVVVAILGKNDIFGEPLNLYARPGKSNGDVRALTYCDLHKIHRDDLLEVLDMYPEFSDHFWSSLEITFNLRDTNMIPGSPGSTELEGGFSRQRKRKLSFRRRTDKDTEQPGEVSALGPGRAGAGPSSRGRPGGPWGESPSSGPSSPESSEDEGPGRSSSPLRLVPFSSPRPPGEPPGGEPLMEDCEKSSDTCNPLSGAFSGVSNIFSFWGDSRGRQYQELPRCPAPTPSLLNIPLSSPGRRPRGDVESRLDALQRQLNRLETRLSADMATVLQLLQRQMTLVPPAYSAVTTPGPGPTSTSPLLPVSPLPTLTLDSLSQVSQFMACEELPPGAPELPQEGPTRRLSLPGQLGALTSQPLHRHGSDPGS

half-life [1]: 2.1 h
EC50 (Trypanosoma brucei [2]): 0.09 µM
IC50 (Cytochrome P450 1A2): 3 µM
IC50 (Cytochrome P450 2C19): 15.3 µM
IC50 (Cytochrome P450 2C9): 24.4 µM
IC50 (Pteridine reductase 1): 47.4 µM
Cmax [5]: 828 ng/mL
IC50 (Cytochrome P450 3A4): > 100 µM
IC50 (Cytochrome P450 2D6): 10.2 µM
AUC(0-t) at 24 h [9]: 5290 ng·h/mL
Tmax [11]: 1 h
Compound: Nc1nc(N)c(C(C[N+](=O)[O-])c2csc3ccccc23)c(N)n1 (stereo not given)
selectivity ratio (CYP2C19): 170
selectivity ratio (CYP1A2): 33
selectivity ratio (CYP3A4): > 1100
selectivity ratio (hERG): 178
inhibition at 50 µM (Leishmania infantum): 49%
GI50 at 48 h [3]: 10.6 µM
IC50 [4]: 16 µM
selectivity ratio (CYP2D6): 113
Activity (Trypanosoma brucei [6]): inactive
selectivity ratio [7]: 117
selectivity ratio (CYP2C9): 271
IC50 [8]: 0.3 µM
CC50 (THP-1): 12.5 µM
IC50 [10]: 10.4 µM
selectivity ratio [12]: 115
selectivity ratio [13]: 139

EC50 (Trypanosoma brucei [2]): 0.004 µM
IC50 (Pteridine reductase 1): 87.1 µM
Compound: N=C(N)c1ccc(OCCCCCOc2ccc(C(=N)N)cc2)cc1 [PENTAMIDINE]
Activity (Trypanosoma brucei [14]): 100%
